Experimental data published in patent publication US20260216174A1, “TREATMENT OF ER+ BREAST CANCER COMPRISING HOMOLOGOUS RECOMBINATION DEFICIENCY USING PARG INHIBITOR” (IDEAYA BIOSCIENCES, INC., priority 2023, published 2026).

System: HCC1428 tumors
Assay: Cell line derived xenograft (CDX) study with HCC1428 tumors
Assay type: in vivo, BALB/c nude mice
Conditions: 45 mg/kg QD p.o.; for TGI value: versus vehicle group
Protocol: For this xenograft, supplemental estradiol benzoate injections (40 μg/20 μl/mouse) are administered subcutaneously twice a week to BALB/c nude mice, starting one week prior to cell implantation and continuing through to the end of study. After implantation, HCC1428 tumor were allocated to treatment arms once a median tumor volume of about 181 mm^3 was reached. In Table 3A the abbreviation “p.o.” refers to oral administration and the abbreviation “QD×28” refers to administration once a day for 28 days.
Tumors were measured and mice were weighed twice a week during the experimental period. The tumor volume (mm3) was estimated using the formula: TV=a×b2/2, where “a” and “b” were the long and the short diameter of a tumor, respectively. The Tumor volumes were used to calculate tumor growth inhibition (TGI, an indicator of antitumor activity) using the formula: TGI %: (1−{T/T0/Ct/C0}/1−{C0/Ct})×100 where Tt=median tumor volume of treated at time t, T0=median tumor volume of treated at time 0, Ct=median tumor volume of control at time t and C0=median tumor volume of control at time 0.
For this xenograft, supplemental estradiol benzoate injections (40 μg/20 μl/mouse) are administered subcutaneously twice a week to BALB/c nude mice, starting one week prior to cell implantation and continuing through to the end of study. After implantation, HCC1428 tumor were allocated to treatment arms once a median tumor volume of about 181 mm^3 was reached. In Table 4A the abbreviation “p.o.” refers to oral administration and the abbreviation “QD×28” refers to administration once a day for 28 days.
Tumors were measured and mice were weighed twice a week during the experimental period. The tumor volume (mm^3) was estimated using the formula: TV=a×b2/2, where “a” and “b” were the long and the short diameter of a tumor, respectively. The Tumor volumes were used to calculate tumor growth inhibition (TGI, an indicator of antitumor activity) using the formula: TGI %: (1−{T/T0/Ct/C0}/1−{C0/Ct})×100 where Tt=median tumor volume of treated at time t, T0=median tumor volume of treated at time 0, Ct=median tumor volume of control at time t and C0=median tumor volume of control at time 0. […] At 100 mg/kg QD the mean tumor volume achieved was 116 mm3, on Day 71. The tumor growth inhibition (TGI) of these treatments compared with vehicle group on Day 28 or 71 of the treatment is summarized in Table 4B (See FIG. 3).

NC(=O)c1cccc2cn(-c3ccc([C@@H]4CCCNC4)cc3)nc12 [niraparib, reference compound]
mean tumor volume (Compound A study): 230 mm^3 | TGI value (Compound A study): 75.2% | mean tumor volume (Compound B study): 230 mm^3 | TGI value (Compound B study): 75.2%
